According to paper PMC12120022, “Discovery and chemical optimisation of a potent, Bi-cyclic antimicrobial inhibitor of Escherichia coli PBP3” (Communications Biology, 2025):
Where a SMILES comes first, the peptide text is derived from it.

Molecular target: T1, EcPBP3 (Escherichia coli, UniProt P0AD68)
T1 construct: For assays, selections and SPR a construct with residues 60–588 which has the N-terminal domain, but not the transmembrane helix, was used; made in house
Test: Fluorescence polarisation competition assay with fluorescent Bicycle tracer (tracer 1 / BCY12820)
Assay type: binding
Details: protein 9.4 nM sets sensitivity limit, top concentration 5 µM, read-out: Ki (nM) by fluorescence polarisation with tracer 1 (BCY12820 as tracer), Geometric mean (Lower 95% CI; Upper 95% CI, n=number of values)
Description: Competition fluorescence polarisation assays were run by observing the fluorescence polarisation of a fluorescent “tracer” Bicycle molecule which competes against an unlabelled peptide for binding to the EcPBP3 target. 10 µL of protein (9.4 nM) was mixed with either 5 µL of peptide or 5 µL of buffer and then the assay was initiated by the addition of 10 µL of tracer (1 nM) (final volume 25 µL), in a black 384 low bind, low volume plate (Corning). The buffer was 10 mM HEPES (Sigma), 2% (v/v) glycerol (Sigma), 300 mM NaCl (Sigma), adjusted to pH 8. The plate was incubated for 1 h at 25 °C and then read in a PHERAstar FS (BMG) using with an “FP 485 520 520” optic module (excitation 485 nm, emission 520 nm). The gain was determined immediately prior to the read on a tracer-only well.
Dotmatics (Dotmatics) workflows performing the above calculations were used to process the data. Values quoted are the geometric means of at least 2 repeats.

T1 sequence (P0AD68 60-588): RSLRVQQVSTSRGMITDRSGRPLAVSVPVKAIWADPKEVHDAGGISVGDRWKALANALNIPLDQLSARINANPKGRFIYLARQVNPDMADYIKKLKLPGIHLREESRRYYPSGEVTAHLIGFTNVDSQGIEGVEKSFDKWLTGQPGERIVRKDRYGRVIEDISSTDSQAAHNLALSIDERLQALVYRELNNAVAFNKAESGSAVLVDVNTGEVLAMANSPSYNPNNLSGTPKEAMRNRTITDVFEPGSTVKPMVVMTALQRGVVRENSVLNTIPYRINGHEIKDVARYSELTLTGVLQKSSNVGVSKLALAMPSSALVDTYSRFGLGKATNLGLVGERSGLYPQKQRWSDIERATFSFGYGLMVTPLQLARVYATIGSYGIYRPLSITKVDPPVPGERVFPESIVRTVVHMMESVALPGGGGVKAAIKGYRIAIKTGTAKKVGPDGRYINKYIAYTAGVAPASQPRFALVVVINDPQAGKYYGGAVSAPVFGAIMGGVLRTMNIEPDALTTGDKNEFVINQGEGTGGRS

CC(C)[C@@H]1NC(=O)[C@H](Cc2c[nH]c3ccccc23)NC(=O)[C@@H]2CCCN2C(=O)[C@@H]2CSCCC(=O)N3CN(CN(C3)C(=O)CCSC[C@H](NC(=O)[C@H](C)N)C(=O)NCC(=O)N[C@@H](Cc3ccccc3)C(=O)N3CCC[C@H]3C(=O)N[C@@H](CCCCNC(=N)N)C(=O)N2)C(=O)CCSC[C@@H](C(=O)N[C@@H](C)C(N)=O)NC(=O)CNC(=O)[C@H](CCC(=O)O)NC1=O [Peptide 26] (HELM PEPTIDE1{A.C.G.F.P.[N=C(N)NCCCC[C@H](N[*:1])C(=O)[*:2]].C.P.W.V.E.G.C.A.[am]}|CHEM1{[O=C(CC[*:1])N1CN(C(=O)CC[*:2])CN(C(=O)CC[*:3])C1]}$PEPTIDE1,CHEM1,2:R3-1:R1|PEPTIDE1,CHEM1,7:R3-1:R2|PEPTIDE1,CHEM1,13:R3-1:R3$$$V2.0)
Ki: 17.1 nM

CC(C)[C@@H]1NC(=O)[C@H](Cc2c[nH]c3ccccc23)NC(=O)[C@@H]2CCCN2C(=O)[C@@H]2CSCCC(=O)N3CN(CN(C3)C(=O)CCSC[C@H](NC(=O)[C@H](C)N)C(=O)N[C@@H](CC(N)=O)C(=O)N[C@@H](Cc3ccccc3)C(=O)N3CCC[C@H]3C(=O)N[C@@H](CCCCNC(=N)N)C(=O)N2)C(=O)CCSC[C@@H](C(=O)N[C@@H](C)C(N)=O)NC(=O)CNC(=O)[C@H](CCC(=O)O)NC1=O [Peptide 29] (HELM PEPTIDE1{A.C.N.F.P.[N=C(N)NCCCC[C@H](N[*:1])C(=O)[*:2]].C.P.W.V.E.G.C.A.[am]}|CHEM1{[O=C(CC[*:1])N1CN(C(=O)CC[*:2])CN(C(=O)CC[*:3])C1]}$PEPTIDE1,CHEM1,2:R3-1:R1|PEPTIDE1,CHEM1,7:R3-1:R2|PEPTIDE1,CHEM1,13:R3-1:R3$$$V2.0)
Ki: < 9 nM

CC(C)[C@@H]1NC(=O)[C@H](Cc2c[nH]c3ccccc23)NC(=O)[C@@H]2CCCN2C(=O)[C@@H]2CSCCC(=O)N3CN(CN(C3)C(=O)CCSC[C@H](NC(=O)[C@H](C)N)C(=O)N[C@@H](CCC(N)=O)C(=O)N[C@@H](Cc3ccccc3)C(=O)N3CCC[C@H]3C(=O)N[C@@H](CCCCNC(=N)N)C(=O)N2)C(=O)CCSC[C@@H](C(=O)N[C@@H](C)C(N)=O)NC(=O)CNC(=O)[C@H](CCC(=O)O)NC1=O [Peptide 30] (HELM PEPTIDE1{A.C.Q.F.P.[N=C(N)NCCCC[C@H](N[*:1])C(=O)[*:2]].C.P.W.V.E.G.C.A.[am]}|CHEM1{[O=C(CC[*:1])N1CN(C(=O)CC[*:2])CN(C(=O)CC[*:3])C1]}$PEPTIDE1,CHEM1,2:R3-1:R1|PEPTIDE1,CHEM1,7:R3-1:R2|PEPTIDE1,CHEM1,13:R3-1:R3$$$V2.0)
Ki: < 9 nM

CC(C)[C@@H]1NC(=O)[C@H](Cc2c[nH]c3ccccc23)NC(=O)[C@@H]2CCCN2C(=O)[C@@H]2CSCCC(=O)N3CN(CN(C3)C(=O)CCSC[C@H](NC(=O)[C@H](C)N)C(=O)N[C@@H](CCC(=O)O)C(=O)N[C@@H](Cc3ccccc3)C(=O)N3CCC[C@H]3C(=O)N[C@@H](CCCCNC(=N)N)C(=O)N2)C(=O)CCSC[C@@H](C(=O)N[C@@H](C)C(N)=O)NC(=O)CNC(=O)[C@H](CCC(=O)O)NC1=O [Peptide 31] (HELM PEPTIDE1{A.C.E.F.P.[N=C(N)NCCCC[C@H](N[*:1])C(=O)[*:2]].C.P.W.V.E.G.C.A.[am]}|CHEM1{[O=C(CC[*:1])N1CN(C(=O)CC[*:2])CN(C(=O)CC[*:3])C1]}$PEPTIDE1,CHEM1,2:R3-1:R1|PEPTIDE1,CHEM1,7:R3-1:R2|PEPTIDE1,CHEM1,13:R3-1:R3$$$V2.0)
Ki: < 9 nM

CC(C)[C@@H]1NC(=O)[C@H](Cc2c[nH]c3ccccc23)NC(=O)[C@@H]2CCCN2C(=O)[C@@H]2CSCCC(=O)N3CN(CN(C3)C(=O)CCSC[C@H](NC(=O)[C@H](C)N)C(=O)N[C@@H](CO)C(=O)N[C@@H](Cc3c[nH]cn3)C(=O)N3CCC[C@H]3C(=O)N[C@@H](CCCCNC(=N)N)C(=O)N2)C(=O)CCSC[C@@H](C(=O)N[C@@H](C)C(N)=O)NC(=O)CNC(=O)[C@H](CCC(=O)O)NC1=O [Peptide 32] (HELM PEPTIDE1{A.C.S.H.P.[N=C(N)NCCCC[C@H](N[*:1])C(=O)[*:2]].C.P.W.V.E.G.C.A.[am]}|CHEM1{[O=C(CC[*:1])N1CN(C(=O)CC[*:2])CN(C(=O)CC[*:3])C1]}$PEPTIDE1,CHEM1,2:R3-1:R1|PEPTIDE1,CHEM1,7:R3-1:R2|PEPTIDE1,CHEM1,13:R3-1:R3$$$V2.0)
Ki: 115 nM

CC(C)[C@@H]1NC(=O)[C@H](Cc2c[nH]c3ccccc23)NC(=O)[C@@H]2CCCN2C(=O)[C@@H]2CSCCC(=O)N3CN(CN(C3)C(=O)CCSC[C@H](NC(=O)[C@H](C)N)C(=O)N[C@@H](CO)C(=O)N[C@@H](Cc3ccccc3)C(=O)NCC(=O)N[C@@H](CCCCNC(=N)N)C(=O)N2)C(=O)CCSC[C@@H](C(=O)N[C@@H](C)C(N)=O)NC(=O)CNC(=O)[C@H](CCC(=O)O)NC1=O [Peptide 33] (HELM PEPTIDE1{A.C.S.F.G.[N=C(N)NCCCC[C@H](N[*:1])C(=O)[*:2]].C.P.W.V.E.G.C.A.[am]}|CHEM1{[O=C(CC[*:1])N1CN(C(=O)CC[*:2])CN(C(=O)CC[*:3])C1]}$PEPTIDE1,CHEM1,2:R3-1:R1|PEPTIDE1,CHEM1,7:R3-1:R2|PEPTIDE1,CHEM1,13:R3-1:R3$$$V2.0)
Ki: 53.5 nM

CC(C)[C@@H]1NC(=O)[C@H](Cc2c[nH]c3ccccc23)NC(=O)[C@@H]2CCCN2C(=O)[C@@H]2CSCCC(=O)N3CN(CN(C3)C(=O)CCSC[C@H](NC(=O)[C@H](C)N)C(=O)N[C@@H](CO)C(=O)N[C@@H](Cc3ccccc3)C(=O)N[C@@H](Cc3ccc(O)cc3)C(=O)N[C@@H](CCCCNC(=N)N)C(=O)N2)C(=O)CCSC[C@@H](C(=O)N[C@@H](C)C(N)=O)NC(=O)CNC(=O)[C@H](CCC(=O)O)NC1=O [Peptide 34] (HELM PEPTIDE1{A.C.S.F.Y.[N=C(N)NCCCC[C@H](N[*:1])C(=O)[*:2]].C.P.W.V.E.G.C.A.[am]}|CHEM1{[O=C(CC[*:1])N1CN(C(=O)CC[*:2])CN(C(=O)CC[*:3])C1]}$PEPTIDE1,CHEM1,2:R3-1:R1|PEPTIDE1,CHEM1,7:R3-1:R2|PEPTIDE1,CHEM1,13:R3-1:R3$$$V2.0)
Ki: 27.1 nM

CC(C)[C@@H]1NC(=O)[C@H](Cc2c[nH]c3ccccc23)NC(=O)[C@@H]2CCCN2C(=O)[C@@H]2CSCCC(=O)N3CN(CN(C3)C(=O)CCSC[C@H](NC(=O)[C@H](C)N)C(=O)N[C@@H](CO)C(=O)N[C@@H](Cc3ccccc3)C(=O)N[C@@H](CO)C(=O)N[C@@H](CCCCNC(=N)N)C(=O)N2)C(=O)CCSC[C@@H](C(=O)N[C@@H](C)C(N)=O)NC(=O)CNC(=O)[C@H](CCC(=O)O)NC1=O [Peptide 35] (HELM PEPTIDE1{A.C.S.F.S.[N=C(N)NCCCC[C@H](N[*:1])C(=O)[*:2]].C.P.W.V.E.G.C.A.[am]}|CHEM1{[O=C(CC[*:1])N1CN(C(=O)CC[*:2])CN(C(=O)CC[*:3])C1]}$PEPTIDE1,CHEM1,2:R3-1:R1|PEPTIDE1,CHEM1,7:R3-1:R2|PEPTIDE1,CHEM1,13:R3-1:R3$$$V2.0)
Ki: 53.4 nM

CC(C)[C@@H]1NC(=O)[C@H](Cc2c[nH]c3ccccc23)NC(=O)[C@@H]2CCCN2C(=O)[C@@H]2CSCCC(=O)N3CN(CN(C3)C(=O)CCSC[C@H](NC(=O)[C@H](C)N)C(=O)N[C@@H](CO)C(=O)N[C@@H](Cc3ccccc3)C(=O)N[C@@H]([C@@H](C)O)C(=O)N[C@@H](CCCCNC(=N)N)C(=O)N2)C(=O)CCSC[C@@H](C(=O)N[C@@H](C)C(N)=O)NC(=O)CNC(=O)[C@H](CCC(=O)O)NC1=O [Peptide 36] (HELM PEPTIDE1{A.C.S.F.T.[N=C(N)NCCCC[C@H](N[*:1])C(=O)[*:2]].C.P.W.V.E.G.C.A.[am]}|CHEM1{[O=C(CC[*:1])N1CN(C(=O)CC[*:2])CN(C(=O)CC[*:3])C1]}$PEPTIDE1,CHEM1,2:R3-1:R1|PEPTIDE1,CHEM1,7:R3-1:R2|PEPTIDE1,CHEM1,13:R3-1:R3$$$V2.0)
Ki: 75 nM

CC(C)[C@@H]1NC(=O)[C@H](Cc2c[nH]c3ccccc23)NC(=O)[C@@H]2CCCN2C(=O)[C@@H]2CSCCC(=O)N3CN(CN(C3)C(=O)CCSC[C@H](NC(=O)[C@H](C)N)C(=O)N[C@@H](CO)C(=O)N[C@@H](Cc3ccccc3)C(=O)N[C@@H](Cc3c[nH]cn3)C(=O)N[C@@H](CCCCNC(=N)N)C(=O)N2)C(=O)CCSC[C@@H](C(=O)N[C@@H](C)C(N)=O)NC(=O)CNC(=O)[C@H](CCC(=O)O)NC1=O [Peptide 37] (HELM PEPTIDE1{A.C.S.F.H.[N=C(N)NCCCC[C@H](N[*:1])C(=O)[*:2]].C.P.W.V.E.G.C.A.[am]}|CHEM1{[O=C(CC[*:1])N1CN(C(=O)CC[*:2])CN(C(=O)CC[*:3])C1]}$PEPTIDE1,CHEM1,2:R3-1:R1|PEPTIDE1,CHEM1,7:R3-1:R2|PEPTIDE1,CHEM1,13:R3-1:R3$$$V2.0)
Ki: 31.5 nM

CC(C)[C@@H]1NC(=O)[C@H](Cc2c[nH]c3ccccc23)NC(=O)[C@@H]2CCCN2C(=O)[C@@H]2CSCCC(=O)N3CN(CN(C3)C(=O)CCSC[C@H](NC(=O)[C@H](C)N)C(=O)N[C@@H](CO)C(=O)N[C@@H](Cc3ccccc3)C(=O)N[C@@H](CC(=O)O)C(=O)N[C@@H](CCCCNC(=N)N)C(=O)N2)C(=O)CCSC[C@@H](C(=O)N[C@@H](C)C(N)=O)NC(=O)CNC(=O)[C@H](CCC(=O)O)NC1=O [Peptide 38] (HELM PEPTIDE1{A.C.S.F.D.[N=C(N)NCCCC[C@H](N[*:1])C(=O)[*:2]].C.P.W.V.E.G.C.A.[am]}|CHEM1{[O=C(CC[*:1])N1CN(C(=O)CC[*:2])CN(C(=O)CC[*:3])C1]}$PEPTIDE1,CHEM1,2:R3-1:R1|PEPTIDE1,CHEM1,7:R3-1:R2|PEPTIDE1,CHEM1,13:R3-1:R3$$$V2.0)
Ki: 167 nM
